Patent publication US20110212100A1, “METHODS FOR MODULATING DEVELOPMENT AND EXPANSION OF IL-17 EXPRESSING CELLS” (priority 2007, published 2011)

Columns and labels:
[1] = tested on: human memory T cells (CD4+ CD45RO+); assay: IL-17 and IFNγ expression by human memory T cells co-cultured with monocytes; type: cell-based; conditions: 100 nM HF, 6 days
Experimental: FIG. 10F is an illustration depicting purified primary human memory T cells (CD4^+ CD45RO^+) activated by anti-CD3/anti-CD28 coated beads in co-culture with CD14^+ monocytes and treated with DMSO, 100 nM HF or 100 nM MAZ1310. T cells were expanded for 6 days and intracellular cytokine expression was determined following restimuation with PMA plus ionomycin in the presence of brefeldin A.
Human T cell isolation and activation: Resting CD4^+ T cells were isolated from PBMC of healthy human donors using Dynal CD4 Positive Isolation Kit (Invitrogen, Carlsbad, Calif.) as previously described (M. Sundrud et al., Blood 106, 3440, 2005). CD4^+ cells were further purified to obtain memory T cells by staining with PE-conjugated anti-human CD45RO-PE antibodies (BD Biosciences), and sorting on a FACSAria cytometer (BD Biosciences). Following purification, cells were greater than 99% CD4^+ CD45RO^+. […] T cells were expanded in the presence HF or MAZ1310 as indicated for 6 days and intracellular cytokine expression was determined by intracellular staining.
Detection of cytokine production: Cytokines secreted into media supernatant were measured using the mouse Th1/Th2 cytometric bead array (CBA, BD Pharmingen) in accordance with manufacturers instructions. […]

[2] = tested on: TSK mouse; conditions: 1 μg HF/mouse IP daily (McGaha et al.); cited from earlier work
[3] = tested on: Jurkat T cells; assay: Apoptosis of Jurkat T cells (Annexin V / PI); type: cell-based; conditions: 100 nM HF, 30 hours
Experimental: The non-specific cytoxicity of HF in both normal and transformed T-cells at high doses was evaluated. Anti-CD3/anti-CD28 activated primary T cells were harvested 6 days after activation and cultured in the presence of IL-2 with or without HF (100 nM). As a positive control, some T cells were cultured without IL-2 to induce apoptosis (FIG. 3A). Jurkat T cells, a transformed T cell leukemia line, were cultured in complete medium with or without HF (100 nM) as indicated (FIG. 3B). Both primary and Jurkat T cells were cultured for 30 hours and programmed cell death, i.e. apoptosis, was determined by Annexin V staining and propidium iodide (PI) uptake and cells were analyzed by flow cytometry. The percent of apoptotic T cells at each time point was plotted and was defined as Annexin V^+ PI^−. […] In further experiments, titrating amounts of HF were added to primary T cells and apoptosis was determine as above at the indicated time points. At 100 nM HF, but not 30 nM or lower, generalized T-cell apoptosis was observed (FIG. 3C).

[4] = human, in vivo; cited from earlier work

O=C(CC1NCCCC1O)Cn1cnc2cc(Br)c(Cl)cc2c1=O (racemic) [HF, 7-bromo-6-chloro-3-[3-(3-hydroxy-2-piperidinyl)-2-oxopropyl]-4(3H)-quinazolinone]
IFNγ expression by human T cells, in words [1]: essentially unaffected | percentage of human T cells expressing IL-17 and amount of IL-17 produced, in words [1]: greatly reduced | skin thickness in TSK model, in words [2]: reduced skin thickness of a TSK mouse to that of a normal mouse | toxic effects in TSK model, in words [2]: no toxic effects | apoptosis (Annexin V+ PI−) of Jurkat T cells, in words [3]: caused significant apoptosis | HF in serum during topical treatment, in words [4]: undetectable in serum
